Article PMC7023430, “4-Aminobenzoic Acid Derivatives: Converting Folate Precursor to Antimicrobial and Cytotoxic Agents” (Biomolecules, 2019)
Like-named read-outs stand apart in the source and are kept apart here.

Experiments:
[1] = test system: Mycobacterium avium 330/88; test: Antimycobacterial micromethod in Šula's medium, M. avium; assay type: cell-based
Candida tropicalis 156 = test: Antifungal microdilution broth method, C. tropicalis; assay type: cell-based
How it was run: (§1)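 MIC by visual endpoint reading after twofold serial dilution of DMSO-dissolved compounds in RPMI-1640 (L-glutamine, 2% glucose, pH 7.0 with MOPS). Method follows EUCAST instructions, slightly modified; duplicates required agreement within one dilution step.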

[2] = test system: Aspergillus fumigatus 231; test: Antifungal microdilution broth method, A. fumigatus; assay type: cell-based
How it was run: as §1

Trichosporon asahii 1188 = test: Antifungal microdilution broth method, T. asahii; assay type: cell-based
How it was run: as §1

[3] = test system: Enterococcus faecalis ATCC 29212, CCM 4224; test: Antibacterial microdilution broth method, E. faecalis; assay type: cell-based; conditions: Enterococcus faecalis
Candida krusei E28 = test: Antifungal microdilution broth method, C. krusei; assay type: cell-based; conditions: Pichia kudriavzevii
How it was run: as §1

[4] = test system: methicillin-resistant Staphylococcus aureus ATCC 43300, CCM 4750 (MRSA); test: Antibacterial microdilution broth method, MRSA; assay type: cell-based; conditions: Staphylococcus aureus
[5] = test system: Mycobacterium tuberculosis H37Rv (331/88); test: Antimycobacterial micromethod in Šula's medium, M. tuberculosis; assay type: cell-based
[6] = test system: Mycobacterium kansasii 235/80; test: Antimycobacterial micromethod in Šula's medium, M. kansasii 235/80; assay type: cell-based
[7] = test system: Escherichia coli ATCC 25922, CCM 3954; test: Antibacterial microdilution broth method, E. coli; assay type: cell-based; conditions: Escherichia coli
[8] = test system: Staphylococcus epidermidis H 6966/08; test: Antibacterial microdilution broth method, S. epidermidis; assay type: cell-based; conditions: Staphylococcus epidermidis, H6966/08
[9] = test system: Lichtheimia corymbifera 272; test: Antifungal microdilution broth method, L. corymbifera; assay type: cell-based
How it was run: as §1

[10] = test system: M. kansasii 6509/96 (clinical isolate); test: Antimycobacterial micromethod in Šula's medium, M. kansasii 6509/96; assay type: cell-based; conditions: Mycobacterium kansasii
[11] = test system: Klebsiella pneumoniae D 11750/08; test: Antibacterial microdilution broth method, K. pneumoniae; conditions: K. pneumoniae D 11750/08; for MIC KP 24 h: 24 h incubation; for MIC KP 48 h: 48 h incubation
[12] = test system: Trichophyton interdigitale 445; test: Antifungal microdilution broth method, T. interdigitale; assay type: cell-based
How it was run: as §1

[13] = test system: ESBL-positive Klebsiella pneumoniae J 14368/08
[14] = 330/88, 336 h, 14 days incubation at 37 °C, read-out: MIC M. avium 330/88 14 d
[15] = 330/88, 504 h, 21 days incubation at 37 °C, read-out: MIC M. avium 330/88 21 d
[16] = 24 h incubation, read-out: MIC EF 24 h
[17] = 48 h incubation, read-out: MIC EF 48 h
[18] = 24 h incubation, read-out: MIC MRSA 24 h
[19] = 48 h incubation, read-out: MIC MRSA 48 h
[20] = 336 h, 14 days incubation at 37 °C, read-out: MIC Mtb. 331/88 14 d
[21] = 504 h, 21 days incubation at 37 °C, read-out: MIC Mtb. 331/88 21 d
[22] = 235/80, 168 h, 7 days incubation at 37 °C, read-out: MIC M. kansasii 235/80 7 d
[23] = 235/80, 336 h, 14 days incubation at 37 °C, read-out: MIC M. kansasii 235/80 14 d
[24] = 235/80, 504 h, 21 days incubation at 37 °C, read-out: MIC M. kansasii 235/80 21 d
[25] = 24 h incubation, read-out: MIC EC 24 h
[26] = 48 h incubation, read-out: MIC EC 48 h
[27] = S. epidermidis, 24 h incubation, read-out: MIC SE 24 h
[28] = S. epidermidis, 48 h incubation, read-out: MIC SE 48 h
[29] = 168 h, 7 days incubation at 37 °C, read-out: MIC M. kansasii 6509/96 7 d
[30] = 336 h, 14 days incubation at 37 °C, read-out: MIC M. kansasii 6509/96 14 d
[31] = 504 h, 21 days incubation at 37 °C, read-out: MIC M. kansasii 6509/96 21 d
[32] = time not stated, read-out: MIC, S. epidermidis

O=C(O)c1ccc(N=Cc2cc(I)ccc2O)cc1 [1e, 4-[(2-Hydroxy-5-iodobenzylidene)amino]benzoic acid]
> 125 µM: MIC ([9]; 24 h, read-out: MIC LC 24 h) | MIC ([9]; 48 h, read-out: MIC LC 48 h)
31.2 µM: MIC ([12]; 72 h, read-out: MIC TI 72 h) | MIC ([12]; 120 h, read-out: MIC TI 120 h)
500 µM: MIC [1, 14] | MIC [1, 15] | MIC [10, 31]
62.5 µM: MIC (Trichosporon asahii 1188; 24 h, read-out: MIC TA 24 h) | MIC (Trichosporon asahii 1188; 48 h, read-out: MIC TA 48 h) | MIC (Candida krusei E28; 24 h, read-out: MIC CK 24 h) | MIC (Candida krusei E28; 48 h, read-out: MIC CK 48 h) | MIC [8, 27] | MIC [8, 28]
250 µM: MIC [4, 18] | MIC [4, 19] | MIC [5, 20] | MIC [5, 21] | MIC [6, 22] | MIC [6, 23] | MIC [6, 24] | MIC [10, 29] | MIC [10, 30]
> 250 µM: MIC [3, 16] | MIC [3, 17] | MIC [7, 25] | MIC [7, 26]
>250 µM: MIC KP 24 h [11] | MIC KP 48 h [11] | MIC KP-E 24 h [13] | MIC KP-E 48 h [13]
125 µM: MIC (Candida tropicalis 156; 24 h, read-out: MIC CT 24 h) | MIC (Candida tropicalis 156; 48 h, read-out: MIC CT 48 h) | MIC ([2]; 24 h, read-out: MIC AF 24 h) | MIC ([2]; 48 h, read-out: MIC AF 48 h)

O=C(O)c1ccc(N=Cc2cc([N+](=O)[O-])ccc2O)cc1 [1f, 4-[(2-Hydroxy-5-nitrobenzylidene)amino]benzoic acid]
500 µM: MIC (Trichosporon asahii 1188; 24 h, read-out: MIC TA 24 h) | MIC (Trichosporon asahii 1188; 48 h, read-out: MIC TA 48 h) | MIC [3, 16] | MIC [3, 17] | MIC [4, 18] | MIC [4, 19] | MIC [5, 21] | MIC [6, 22] | MIC [6, 23] | MIC [6, 24] | MIC ([9]; 24 h, read-out: MIC LC 24 h) | MIC ([9]; 48 h, read-out: MIC LC 48 h) | MIC [10, 29] | MIC [10, 30] | MIC [10, 31] | MIC ([12]; 72 h, read-out: MIC TI 72 h) | MIC ([12]; 120 h, read-out: MIC TI 120 h)
250 µM: MIC [5, 20] | MIC [8, 27] | MIC [8, 28]
1000 µM: MIC [1, 14]
>500 µM: MIC KP 24 h [11] | MIC KP 48 h [11] | MIC KP-E 24 h [13] | MIC KP-E 48 h [13]
> 500 µM: MIC (Candida tropicalis 156; 24 h, read-out: MIC CT 24 h) | MIC (Candida tropicalis 156; 48 h, read-out: MIC CT 48 h) | MIC ([2]; 24 h, read-out: MIC AF 24 h) | MIC ([2]; 48 h, read-out: MIC AF 48 h) | MIC (Candida krusei E28; 24 h, read-out: MIC CK 24 h) | MIC (Candida krusei E28; 48 h, read-out: MIC CK 48 h) | MIC [7, 25] | MIC [7, 26]
> 1000 µM: MIC [1, 15]

Cc1ccc(O)c(C=Nc2ccc(C(=O)O)cc2)c1 [1g, 4-[(2-Hydroxy-5-methylbenzylidene)amino]benzoic acid]
> 500 µM: MIC [3, 16] | MIC [3, 17] | MIC [4, 18] | MIC [4, 19] | MIC [7, 25] | MIC [7, 26]
>500 µM: MIC KP 24 h [11] | MIC KP 48 h [11] | MIC KP-E 24 h [13] | MIC KP-E 48 h [13]
500 µM: MIC [5, 20] | MIC [5, 21] | MIC [6, 22] | MIC [6, 23] | MIC [6, 24] | MIC [10, 29] | MIC [10, 30]
1000 µM: MIC [10, 31]
≥ 250 µM: MIC [8, 32]
> 1000 µM: MIC [1, 14] | MIC [1, 15]
> 125 µM: MIC (Candida tropicalis 156; 24 h, read-out: MIC CT 24 h) | MIC (Candida tropicalis 156; 48 h, read-out: MIC CT 48 h) | MIC ([2]; 24 h, read-out: MIC AF 24 h) | MIC ([2]; 48 h, read-out: MIC AF 48 h) | MIC (Trichosporon asahii 1188; 24 h, read-out: MIC TA 24 h) | MIC (Trichosporon asahii 1188; 48 h, read-out: MIC TA 48 h) | MIC (Candida krusei E28; 24 h, read-out: MIC CK 24 h) | MIC (Candida krusei E28; 48 h, read-out: MIC CK 48 h) | MIC ([9]; 24 h, read-out: MIC LC 24 h) | MIC ([9]; 48 h, read-out: MIC LC 48 h) | MIC ([12]; 72 h, read-out: MIC TI 72 h) | MIC ([12]; 120 h, read-out: MIC TI 120 h)
250 µM: MIC [8, 27] | MIC [8, 28]

COc1ccc(O)c(C=Nc2ccc(C(=O)O)cc2)c1 [1h, 4-[(2-Hydroxy-5-methoxybenzylidene)amino]benzoic acid]
250 µM: MIC [5, 20]
≥ 250 µM: MIC [8, 32]
1000 µM: MIC [1, 14] | MIC [1, 15]
>500 µM: MIC KP 24 h [11] | MIC KP 48 h [11] | MIC KP-E 24 h [13] | MIC KP-E 48 h [13]
> 500 µM: MIC ([2]; 24 h, read-out: MIC AF 24 h) | MIC ([2]; 48 h, read-out: MIC AF 48 h) | MIC [3, 16] | MIC [3, 17] | MIC [4, 18] | MIC [4, 19] | MIC [7, 25] | MIC [7, 26] | MIC ([9]; 24 h, read-out: MIC LC 24 h) | MIC ([9]; 48 h, read-out: MIC LC 48 h) | MIC ([12]; 72 h, read-out: MIC TI 72 h) | MIC ([12]; 120 h, read-out: MIC TI 120 h)
500 µM: MIC (Candida tropicalis 156; 24 h, read-out: MIC CT 24 h) | MIC (Candida tropicalis 156; 48 h, read-out: MIC CT 48 h) | MIC (Trichosporon asahii 1188; 24 h, read-out: MIC TA 24 h) | MIC (Trichosporon asahii 1188; 48 h, read-out: MIC TA 48 h) | MIC (Candida krusei E28; 24 h, read-out: MIC CK 24 h) | MIC (Candida krusei E28; 48 h, read-out: MIC CK 48 h) | MIC [5, 21] | MIC [6, 22] | MIC [6, 23] | MIC [6, 24] | MIC [8, 27] | MIC [8, 28] | MIC [10, 29] | MIC [10, 30] | MIC [10, 31]
